Holding throughout (type): cell-based
Test [1] concerns Colletotrichum lindemuthianum. Nature of the test: in vitro-Test with Colletotrichum lindemuthianum (microtiter growth inhibition). To be noted: for inhibition of growth at 0.04 ppm: applied alone at 0.04 ppm. As to the method:
The degree of efficacy expressed in % is denoted: 0% means an efficacy, which corresponds to that of the control, while an efficacy of 100% means that no disease is observed.
If the actual fungicidal activity exceeds the calculated value, then the activity of the combination is super-additive, i.e. a synergistic effect exists. In this case, the efficacy, which was actually observed, must be greater than the value for the expected efficacy (E), that was calculated from the abovementioned formula.
Example: In Vitro-Test with Fungal Microorganisms
Wells of 96-well microtiter plates are filled with 10 μl of a preparation of test compound or compound combination in methanol+emulsifier alkylaryl-polyglycol-ether. Thereafter, the solvent is evaporated in a hood. At the next step, 100 μl of liquid potato dextrose medium is given into each well, that has been amended with an appropriate concentration of spores or mycelium suspension of the test fungus.
With the aid of a photometer, the extinction in all wells is measured at the wavelength of 620 nm.
The microtiter plates are incubated at 20° C. and 85% relative humidity. The inhibition of growth is determined again photometrically 3-5 days after the application. Efficacy is calculated in relation to the untreated control, 0% efficacy means fungal growth as high as in untreated control while 100% efficacy means no fungal growth is measured.

In test [2] the test system is Ustilago segetum var. avenae. Nature of the test: in vitro-Test with Ustilago segetum var. avenae (microtiter growth inhibition). To be noted: compound alone. The procedure, abridged:
(§1)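 Cpd/combination in MeOH + emulsifier into wells, solvent evaporated; liquid potato dextrose medium + spore/mycelium suspension added. OD 620 nm at t0; incubate 20° C./85% RH; OD 620 nm again at 3-5 d. % efficacy vs untreated control; combinations compared with expected efficacy (E) calculated by formula.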

The next test deals with Parastagonospora nodorum. Nature of the test: in vitro-Test with Parastagonospora nodorum (microtiter growth inhibition). The conditions noted are these: compound alone. In short, it runs like this: as §1
A further test deals with Botrytis cinerea. Nature of the test: in vitro-Test with Botrytis cinerea (microtiter growth inhibition). The conditions noted are these: for inhibition of growth at 0.008 ppm: single active at 0.008 ppm; for inhibition of growth at 0.8 ppm: single active at 0.8 ppm. In short, it runs like this:
as §1

The test system of a further test is Cercospora beticola. Nature of the test: in vitro-Test with Cercospora beticola (microtiter growth inhibition). In short, it runs like this:
as §1

[3] abbreviates: Colletotrichum lindemuthianum, applied alone at 0.008 ppm, read-out: Efficacy %.
The mark [4] stands for this setting: Colletotrichum lindemuthianum, read-out: Efficacy %.
Where [5] appears, read: Colletotrichum lindemuthianum, applied alone at 1.0 ppm, read-out: Efficacy %.
Setting [6] is: Parastagonospora nodorum, read-out: Efficacy %.
Setting [7] is: Botrytis cinerea, read-out: Efficacy %.
The mark [8] stands for this setting: Botrytis cinerea, single active at 0.2 ppm, read-out: Efficacy %.
Where [9] appears, read: Colletotrichum lindemuthianum, applied alone at 0.2 ppm, read-out: Efficacy %.
Where [10] appears, read: Parastagonospora nodorum, 1.0 ppm, read-out: Efficacy %.
The mark [11] stands for this setting: Colletotrichum lindemuthianum, applied alone at 4 ppm, read-out: Efficacy %.
Where [12] appears, read: Colletotrichum lindemuthianum, applied alone at 20 ppm, read-out: Efficacy %.

SMILES strings stand for the structures. “And” between values parts separate entries of the source, which are not always exact repeats. Equal values may be shown once.

The record followed here is US20230165252A1, “ACTIVE COMPOUND COMBINATIONS” (Bayer Aktiengesellschaft, priority 2020, published 2023).

On to `CC1COC(Cn2cncn2)(c2ccc(Oc3ccc(Cl)cc3)cc2Cl)O1` (stereo not shown) [(1.002) difenoconazole], for which the inhibition of growth at 0.008 ppm in test [1] (setting [3]) stood at 2%; in test [2] (0.008 ppm, read-out: Efficacy %), 14%. In addition, the inhibition of growth at 0.04 ppm in test [1] (setting [4]) came out at 13%; with Parastagonospora nodorum (setting [6]), 16%. In addition, the inhibition of growth at 1 ppm in test [1] (setting [5]) came to 13%. For the same compound, the inhibition of growth at 0.2 ppm in test [2] (0.2 ppm, read-out: Efficacy %) turned out to be 57%; with Parastagonospora nodorum (setting [6]), 83%. The Efficacy % in the test with Parastagonospora nodorum (0.008 ppm) was 0%; in the test with Parastagonospora nodorum (1.0 ppm), 97%.
`CC(C)(C)C(O)(CCc1ccc(Cl)cc1)Cn1cncn1` (stereo not shown) [(1.021) tebuconazole]: the inhibition of growth at 0.008 ppm with Botrytis cinerea (setting [7]) was found to be 2%; in test [1] (setting [3]), 7%. The inhibition of growth at 0.04 ppm in the test with Botrytis cinerea (Botrytis cinerea, single active at 0.04 ppm, read-out: Efficacy %) amounted to 5%; in test [1] (setting [4]), 20%; in the test with Parastagonospora nodorum (setting [6]), 10%. Moreover, the values for the inhibition of growth at 0.2 ppm (in the test on Botrytis cinerea (setting [8]); in test [1] (setting [9]); in the test with Parastagonospora nodorum (setting [6])) were 39%, 2% and 79%, respectively. For the same compound, the inhibition of growth at 1 ppm in test [1] (setting [5]) stood at 28%; with Parastagonospora nodorum (setting [10]), 98%.
For the compound `O=C(NCCc1ncc(C(F)(F)F)cc1Cl)c1ccccc1C(F)(F)F` [(2.005) fluopyram], the inhibition of growth at 0.8 ppm with Botrytis cinerea (setting [7]) was 66%; in test [1] (Colletotrichum lindemuthianum, applied alone at 0.8 ppm, read-out: Efficacy %), 14%; with Parastagonospora nodorum (Parastagonospora nodorum, 0.8 ppm, read-out: Efficacy %), 32%. In addition, the inhibition of growth at 4 ppm amounted to 64% in the test with Botrytis cinerea (Botrytis cinerea, single active at 4 ppm, read-out: Efficacy %); 7% in test [1] (setting [11]); 41% in the test on Parastagonospora nodorum (Parastagonospora nodorum, 4 ppm, read-out: Efficacy %). Moreover, the inhibition of growth at 20 ppm in test [1] (setting [12]) turned out to be 19%; in the test with Parastagonospora nodorum (Parastagonospora nodorum, 20 ppm, read-out: Efficacy %), 65%.
As for `CC(C)c1ccc(Cl)cc1CN(C(=O)c1c(C(F)F)nn(C)c1F)C1CC1` [(2.038) isoflucypram], the Efficacy % in the test with Botrytis cinerea (single active at 0.04 ppm) is 43% and 57%; in the test on Botrytis cinerea (single active at 0.2 ppm) it was 63% and 75%; in the test with Botrytis cinerea (single active at 1.0 ppm) it was 83% and 87%; in test [1] (applied alone at 0.008 ppm), 15% and 8%; in test [1] (applied alone at 1.0 ppm), 5%; in test [2] (0.008 ppm) it was 7%. Also, the Efficacy % was 100% and 98% in test [2] (0.2 ppm); 100% in test [2] (1.0 ppm).
On to `CON=C(C(=O)OC)c1ccccc1CON=C(C)c1cccc(C(F)(F)F)c1` [(3.020) trifloxystrobin], for which the inhibition of growth at 0.008 ppm with Botrytis cinerea (setting [7]) is 0%; in test [1] (setting [3]), 27%; in the test with Parastagonospora nodorum (Parastagonospora nodorum, 0.008 ppm, read-out: Efficacy %) it was 36%. The inhibition of growth at 0.2 ppm in the test on Botrytis cinerea (setting [8]) turned out to be 3%; in test [1] (setting [9]) it was 78%; in test [2] (0.2 ppm, read-out: Efficacy %) it was 53%; in the test on Parastagonospora nodorum (setting [6]), 75%. Further, the inhibition of growth at 1 ppm in the test with Botrytis cinerea (Botrytis cinerea, single active at 1.0 ppm, read-out: Efficacy %) was 14%; in test [1] (setting [5]), 79%; in test [2] (1.0 ppm, read-out: Efficacy %), 82%; in the test on Parastagonospora nodorum (setting [10]) it was 83%. The inhibition of growth at 0.04 ppm in test [1] (setting [4]) was determined as 56%; with Parastagonospora nodorum (setting [6]) it was 61%. Further, the Efficacy % in test [1] (applied alone at 0.2 ppm) stood at 77%.
For `CCO[PH](=O)[O-].CCO[PH](=O)[O-].CCO[PH](=O)[O-].[Al+3]` [(15.012) fosetyl-aluminium], the Efficacy % in the test with Cercospora beticola (applied alone at 0.8 ppm) turned out to be 0%; in the test on Cercospora beticola (applied alone at 4 ppm), 0%; in the test on Cercospora beticola (applied alone at 20 ppm), 4%; in the test on Cercospora beticola (applied alone at 100 ppm), 15%; in test [1] (applied alone at 0.8 ppm), 0%; in test [1] (applied alone at 4 ppm) it was 7%. Further, the Efficacy % in test [1] (applied alone at 20 ppm) was 0%; in test [1] (applied alone at 100 ppm), 53%; with Parastagonospora nodorum (0.8 ppm), 0%; in the test with Parastagonospora nodorum (4 ppm), 2%.
As to `COc1cc(C)c(C(=O)c2c(OC)ccc(Br)c2C)c(OC)c1OC` [(15.016) metrafenone], the inhibition of growth at 0.8 ppm in the test on Cercospora beticola (Cercospora beticola, applied alone at 0.8 ppm, read-out: Efficacy %) came to 0%; in the test on Botrytis cinerea (setting [7]) it was 0%. The inhibition of growth at 4 ppm in the test with Cercospora beticola (Cercospora beticola, applied alone at 4 ppm, read-out: Efficacy %) amounted to 13%; in test [1] (setting [11]), 15%. For the same compound, in test [1] (setting [12]), the inhibition of growth at 20 ppm stood at 10%.
